According to patent publication US7750006B2, “Phthalazinone derivatives” (Kudos Pharmaceuticals Limited, priority 2000, dated 2010):

Tested on: HeLa cells
Assay: Dose Enhancing Factor: cell growth inhibition with bleomycin, SRB assay
Assay type: cell-based
Conditions: test compound 25 μM, bleomycin 0.5 μg/ml
Protocol: The Dose Enhancing Factor (DEF) is a ratio of the enhancement of cell growth inhibition elicited by the test compound in the presence of bleomycin compared to bleomycin alone. […] Bleomycin was used at a concentration of 0.5 μg/ml. The DEF was calculated from the formula:
[formula] where GrowthTC is cell growth in presence of the test compound; GrowthControl is cell growth of control cells; Growthbleo is cell growth in presence of bleomycin; and Growth(bleo+TC) is cell growth in presence of bleomycin and the test compound.
2,000 HeLa cells were seeded into each well of a flat-bottomed 96-well microtiter plate in a volume of 100 μl and incubated for 6 hours at 37° C. […] Cells were allowed to grow for a further 1 hour before the addition of bleomycin to either untreated cells or test compound treated cells. Cells untreated with either bleomycin or test compound were used as a control. Cells treated with test compound alone were used to assess the growth inhibition by the test compound.
Cells were left for a further 16 hours before replacing the media and allowing the cells to grow for a further 72 hours at 37° C. The media was then removed and the cells fixed with 100 μl of ice cold 10% (w/v) trichloroacetic acid. The plates were incubated at 4° C. for 20 minutes and then washed four times with water. Each well of cells was then stained with 100 μl of 0.4% (w/v) SRB in 1% acetic acid for 20 minutes before washing four times with 1% acetic acid. Plates were then dried for 2 hours at room temperature. The dye from the stained cells was solubilized by the addition of 100 μl of 10 mM Tris Base into each well.

## O=C(Oc1cccc(Cc2n[nH]c(=O)c3ccccc23)c1)c1ccc(F)cc1 [Compound 212]
  DEF (Dose Enhancing Factor): 2.3

## O=C(Nc1cccc(Cc2n[nH]c(=O)c3ccccc23)c1)c1cccs1 [Compound 169]
  DEF (Dose Enhancing Factor): 1.5

## O=c1[nH]nc(Cc2ccc(O)cc2)c2ccccc12 [Compound 164]
  DEF (Dose Enhancing Factor): 1.3

## O=C(Nc1cccc(Cc2n[nH]c(=O)c3ccccc23)c1)c1ccc(F)cc1 [Compound 170]
  DEF (Dose Enhancing Factor): 2.6

## O=c1[nH]nc(Cc2cccc(Br)c2)c2ccccc12 [Compound 211]
  DEF (Dose Enhancing Factor): 1.4

## Cc1ccc(Cc2n[nH]c(=O)c3ccccc23)cc1 [Compound 139]
  DEF (Dose Enhancing Factor): 1.4

## O=c1[nH]nc(Cc2cccc3ccccc23)c2ccccc12 [Compound 131]
  DEF (Dose Enhancing Factor): 1.3

## O=c1[nH]nc(Cc2ccncc2)c2ccccc12 [Compound 177]
  DEF (Dose Enhancing Factor): 1.2

## O=C(O)COCC(=O)Nc1cc(Cc2n[nH]c(=O)c3ccccc23)ccc1N1CCOCC1 [Compound 206]
  DEF (Dose Enhancing Factor): 1.2

## O=c1[nH]nc(Cc2cccc(Oc3ccccc3)c2)c2ccccc12 [Compound 193]
  DEF (Dose Enhancing Factor): 2.2

## Cn1ccnc1SCc1n[nH]c(=O)c2ccccc12 [Compound 92]
  DEF (Dose Enhancing Factor): 1.5

## O=c1[nH]nc(Cc2ccccc2F)c2ccccc12 [Compound 248]
  DEF (Dose Enhancing Factor): 1.2

## O=C(Nc1ccc(F)cc1)Nc1cccc(Cc2n[nH]c(=O)c3ccccc23)c1 [Compound 216]
  DEF (Dose Enhancing Factor): 1.3

## COc1cc(Cc2n[nH]c(=O)c3ccccc23)ccc1OCc1ccccc1 [Compound 222]
  DEF (Dose Enhancing Factor): 1.2

## O=c1[nH]nc(CSc2ccccn2)c2ccccc12 [Compound 91]
  DEF (Dose Enhancing Factor): 1.4

## O=c1[nH]nc(Cc2ccc(F)cc2)c2ccccc12 [Compound 132]
  DEF (Dose Enhancing Factor): 2.3

## O=c1[nH]nc(Cc2cccc(C(F)(F)F)c2)c2ccccc12 [Compound 191]
  DEF (Dose Enhancing Factor): 1.5

## O=c1[nH]nc(Cc2cccc(OCc3ccccc3)c2)c2ccccc12 [Compound 194]
  DEF (Dose Enhancing Factor): 1.6

## O=c1[nH]nc(Cc2ccc(I)cc2)c2ccccc12 [Compound 151]
  DEF (Dose Enhancing Factor): 1.9

## O=c1[nH]nc(Cc2cccc(O)c2)c2ccccc12 [Compound 165]
  DEF (Dose Enhancing Factor): 1.3

## O=c1[nH]nc(Cc2cccc(F)c2)c2ccccc12 [Compound 192]
  DEF (Dose Enhancing Factor): 1.4

## O=C(Nc1cccc(Cc2n[nH]c(=O)c3ccccc23)c1)c1ccccc1 [Compound 171]
  DEF (Dose Enhancing Factor): 1.8

## O=c1[nH]nc(Cc2ccc(N3CCCC3)c([N+](=O)[O-])c2)c2ccccc12 [Compound 204]
  DEF (Dose Enhancing Factor): 1.6

## CC(=O)Oc1cccc(Cc2n[nH]c(=O)c3ccccc23)c1 [Compound 179]
  DEF (Dose Enhancing Factor): 1.4

## Nc1cc(Cc2n[nH]c(=O)c3ccccc23)ccc1N1CCSCC1 [Compound 198]
  DEF (Dose Enhancing Factor): 2.3

## Cc1ccccc1Cc1n[nH]c(=O)c2ccccc12 [Compound 163]
  DEF (Dose Enhancing Factor): 1.3

## COc1ccc(Cc2n[nH]c(=O)c3ccccc23)cc1 [Compound 138]
  DEF (Dose Enhancing Factor): 1.3

## CC(=O)Nc1ccc(Cc2n[nH]c(=O)c3ccccc23)cc1 [Compound 166]
  DEF (Dose Enhancing Factor): 1.4

## O=C(Nc1ccc(Cc2n[nH]c(=O)c3ccccc23)cc1)c1ccc(F)cc1 [Compound 227]
  DEF (Dose Enhancing Factor): 2.6

## O=c1[nH]nc(Cc2cccc(Cl)c2)c2ccccc12 [Compound 186]
  DEF (Dose Enhancing Factor): 1.6

## O=c1[nH]nc(Cc2cccnc2)c2ccccc12 [Compound 178]
  DEF (Dose Enhancing Factor): 1.9

## O=c1[nH]nc(Cc2ccc(Cl)cc2)c2ccccc12 [Compound 126]
  DEF (Dose Enhancing Factor): 1.9

## O=c1[nH]nc(CSc2ccc(Cl)cc2)c2ccccc12 [Compound 90]
  DEF (Dose Enhancing Factor): 1.8

## Nc1cccc(Cc2n[nH]c(=O)c3ccccc23)c1 [Compound 160]
  DEF (Dose Enhancing Factor): 1.5

## COC(=O)CSCc1n[nH]c(=O)c2ccccc12 [Compound 93]
  DEF (Dose Enhancing Factor): 1.3

## O=C(Nc1ccccc1)Nc1cccc(Cc2n[nH]c(=O)c3ccccc23)c1 [Compound 215]
  DEF (Dose Enhancing Factor): 1.4

## O=c1[nH]nc(Cc2ccccc2F)c2ccccc12 [Compound 141]
  DEF (Dose Enhancing Factor): 1.6

## CC(=O)Nc1cccc(Cc2n[nH]c(=O)c3ccccc23)c1 [Compound 172]
  DEF (Dose Enhancing Factor): 1.4

## O=c1[nH]nc(Cc2ccc(Br)cc2)c2ccccc12 [Compound 129]
  DEF (Dose Enhancing Factor): 1.3

## O=c1[nH]nc(Cc2ccc3c(c2)OCO3)c2ccccc12 [Compound 180]
  DEF (Dose Enhancing Factor): 1.2

## O=c1[nH]nc(Cc2ccccc2)c2ccccc12 [Compound 145]
  DEF (Dose Enhancing Factor): 1.8

## CC(=O)Oc1ccc(Cc2n[nH]c(=O)c3ccccc23)cc1 [Compound 213]
  DEF (Dose Enhancing Factor): 1.3
